Values quoted from earlier work in US7208498B2, “Piperidino pyrimidine dipeptidyl peptidase inhibitors for the treatment of diabetes” (Merck & Co., Inc., priority 2002, dated 2007).

Columns and labels:
cardiac allograft = details: rats; Transplantation 63, 1495–1500 (1997)
hematopoiesis = details: mouse, cyclophosphamide-induced neutropenia; WO 99/56753

CC(C)N1CCC(c2ccccc2)(c2ccccc2)CC1 [Prodipine, Pro-Pro-diphenyl-phosphonate]
cardiac allograft survival (cardiac allograft): double cardiac allograft survival in rats from day 7 to day 14

CC(C)[C@H](N)C(=O)N1CCC[C@H]1B(O)O [Val-Boro-Pro]
hematopoiesis (hematopoiesis): stimulated hematopoiesis

CC[C@H](C)[C@H](N)C(=O)N1CCC[C@H]1C(=O)N[C@H](C(=O)O)[C@@H](C)CC [diprotin A]
degradation of GRF in plasma to GRF[3-44] (GRF): prevented
